{"source": "the supplement of paper PMC10307832", "experiment_in_all_cases": "relative viability (nuclei count vs DMSO), 5 days (fraction); higher = more cells survive", "key": {"[1]": {"compound": "CC[C@H](C)N1C=C(C2=C(C=C(C=C21)C3=CN=C(C=C3)N4CCNCC4)C(=O)NCC5=C(C=C(NC5=O)C)C)C [GSK126] + C[C@]1(O)C[C@@H](c2nc(-c3ccc4ccc(-c5ccccc5)nc4c3)c3c(N)nccn32)C1 [Linsitinib] (partner 1 µM)", "in_short": "(§1)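 Lung cancer cell lines in 1536-well plates were dosed by pin tool the day after seeding, either with one drug alone or with a fixed anchor-drug dose plus five library-drug doses (not always all listed) in √10 steps. After 5 days, cells were fixed and their nuclei stained in one step (final 0.05% Triton X-100, 1% formaldehyde, 1 ug/ml Hoechst), then counted on 4× images. Relative viability is the nuclei count in treated wells divided by that in vehicle wells. Values are medians of duplicate plates.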"}, "[2]": {"compound": "C1CC(C1)(C(=O)O)C(=O)O.[NH2-].[NH2-].[Pt+2] [Carboplatin] + COc1cccc2cc(-c3nc([C@H]4CC[C@H](C(=O)O)CC4)n4ncnc(N)c34)[nH]c12 [OSI-027] (partner 0.5 µM)", "in_short": "as §1"}, "[3]": {"compound": "C1CC(C1)(C(=O)O)C(=O)O.[NH2-].[NH2-].[Pt+2] [Carboplatin] + CC(=O)Nc1cccc(-n2c(=O)n(C3CC3)c(=O)c3c(Nc4ccc(I)cc4F)n(C)c(=O)c(C)c32)c1 [Trametinib] (partner 0.02 µM)", "in_short": "as §1"}, "[4]": {"compound": "C1CC(C1)(C(=O)O)C(=O)O.[NH2-].[NH2-].[Pt+2] [Carboplatin] + Cc1nc(Nc2ncc(C(=O)Nc3c(C)cccc3Cl)s2)cc(N2CCN(CCO)CC2)n1 [Dasatinib] (partner 0.075 µM)", "in_short": "as §1"}}}
{"cell line": "UMC-11", "values": [{"measurement": "relative viability", "setting": "[1]; first compound 0.08 µM", "result": 1.14}, {"measurement": "relative viability", "setting": "[1]; first compound 0.253 µM", "result": 0.978}, {"measurement": "relative viability", "setting": "[1]; first compound 0.8 µM", "result": 1.04}, {"measurement": "relative viability", "setting": "[1]; first compound 2.53 µM", "result": 1.02}, {"measurement": "relative viability", "setting": "[1]; first compound 8 µM", "result": 1.15}, {"measurement": "relative viability", "setting": "[2]; first compound 0.08 µM", "result": 0.462}, {"measurement": "relative viability", "setting": "[2]; first compound 0.253 µM", "result": 0.432}, {"measurement": "relative viability", "setting": "[2]; first compound 0.8 µM", "result": 0.456}, {"measurement": "relative viability", "setting": "[2]; first compound 2.53 µM", "result": 0.462}, {"measurement": "relative viability", "setting": "[2]; first compound 8 µM", "result": 0.405}, {"measurement": "relative viability", "setting": "[3]; first compound 0.08 µM", "result": 0.632}, {"measurement": "relative viability", "setting": "[3]; first compound 0.253 µM", "result": 0.706}, {"measurement": "relative viability", "setting": "[3]; first compound 0.8 µM", "result": 0.738}, {"measurement": "relative viability", "setting": "[3]; first compound 2.53 µM", "result": 0.929}, {"measurement": "relative viability", "setting": "[3]; first compound 8 µM", "result": 0.532}, {"measurement": "relative viability", "setting": "[4]; first compound 0.08 µM", "result": 0.515}, {"measurement": "relative viability", "setting": "[4]; first compound 0.253 µM", "result": 0.501}, {"measurement": "relative viability", "setting": "[4]; first compound 0.8 µM", "result": 0.461}, {"measurement": "relative viability", "setting": "[4]; first compound 2.53 µM", "result": 0.502}, {"measurement": "relative viability", "setting": "[4]; first compound 8 µM", "result": 0.491}]}
